Reference: patent US20230146455A1, “TREATMENT OF INFLAMMATORY DISEASES WITH PEPTIDES AND PHARMACEUTICAL COMPOSITIONS” (Yuyu Pharma, Inc., priority 2020, published 2023)
Values joined by “and” are separate entries in the source; they are usually repeats but may differ in a detail not shown here. Equal entries are not always repeated. Where a SMILES comes first, the peptide text is derived from it. [ ]: non-standard residue; d: D form. Hyp = O=C(O)[C@@H]1C[C@@H](O)CN1

How the values were obtained:
CCL4/MIP-1 beta = assay: Example 9 Luminex, LPS hPBMCs: CCL4/MIP-1 beta; assay type: cell-based, human; details: PBMC + LPS(5 ug/ml); for MFI (Bead name: CCL4/MIP-1 beta): dilution 10
Description: (§1) Treatment Human PBMCs were pretreated with YY-101, YDE-011 and YDE-043 or reference compound; Xiidra® at various concentration (ranging from 1 nM to 100 uM) for 2 h before stimulation. An equal volume of 0.5% DMSO was used as a vehicle control. Then, the cells were treated with LPS at 5 ug/ml. The supernatants from treated cells were harvested at 24 h and placed in a 96 well for Luminex cytokine & chemokine profiling using a Luminex 200 multiplex assay (Luminex; R&D system, USA).
(§2) The main study arm with triplicate wells per group in a 24-well plate: • 1. Blank • 2. PBMC: 0.5% DMSO • 3. PBMC+LPS (5 ug/ml) • 4. PBMC+YY-101 100 uM • 5. PBMC+YY-101 10 uM • 6. PBMC+YY-101 1 uM • 7. PBMC+YY-101 0.1 uM • 8. PBMC+YY-101 0.01 uM • 9. PBMC+LPS (5 ug/ml)+Xiidra®100 uM • 10. PBMC+LPS (5 ug/ml)+Xiidra® 10 uM • 11. PBMC+LPS (5 ug/ml)+Xiidra® 1 uM • 12. PBMC+LPS (5 ug/ml)+Xiidra®0.1 uM • 13. PBMC+LPS (5 ug/ml)+Xiidra®0.01 uM • 14. PBMC+LPS (5 ug/ml)+Xiidra®0.001 uM • 15. PBMC+LPS (5 ug/ml)+YY-101 100 uM • 16. PBMC+LPS (5 ug/ml)+YY-101 10 uM • 17. PBMC+LPS (5 ug/ml)+YY-101 1 uM • 18. PBMC+LPS (5 ug/ml)+YY-101 0.1 uM • 19. PBMC+LPS (5 ug/ml)+YY-101 0.01 uM • 20. PBMC+LPS (5 ug/ml)+YY-101 0.001 uM • 21. PBMC+LPS (5 ug/ml)+YDE-011 100 uM • 22. PBMC+LPS (5 ug/ml)+YDE-011 10 uM • 23. PBMC+LPS (5 ug/ml)+YDE-011 1 uM • 24. PBMC+LPS (5 ug/ml)+YDE-011 0.1 uM • 25. PBMC+LPS (5 ug/ml)+YDE-011 0.01 uM • 26. PBMC+LPS (5 ug/ml)+YDE-011 0.001 uM • 27. PBMC+LPS (5 ug/ml)+YDE-043 100 uM • 28. PBMC+LPS (5 ug/ml)+YDE-043 10 uM • 29. PBMC+LPS (5 ug/ml)+YDE-043 1 uM • 30. PBMC+LPS (5 ug/ml)+YDE-043 0.1 uM • 31. PBMC+LPS (5 ug/ml)+YDE-043 0.01 uM • 32. PBMC+LPS (5 ug/ml)+YDE-043 0.001 uM
(§3) Multiplex assay was used to measure 30 cytokines and chemokines. The 1:2, 1:10 and 1:200 diluted cell supernatant and serial dilution of the standard were dispensed into a 96 well plate at 50 ul/well. Then, the pre-mixed cocktail of antibody-coated magnetic beads was dispensed at 50 ul/well and incubated at room temperature for 2 h in a horizontal orbital microplate shaker at 800±500 rpm. The beads were washed using a magnetic device to prevent loss. The biotin-antibody was dispensed in 50 ul of each well and incubated at room temperature for 1 h in a shaker at 800±500 rpm. After washing, streptavidin-PE was added at 50 ul/well and incubated at room temperature for 30 min in a shaker under the same conditions. Finally, after washing, wash buffer (100 ul/well) was added to the plate and incubated in a shaker for 2 min. The Luminex™ 200 setting were set according to the manufacturer's protocol. The data was calculated with a standard five-parameter logistic nonlinear regression analysis of the data (xPonent software 4.2, USA). The levels of cytokine/chemokine are normalized to the live cell counts (1×10^5 cells/mL) and presented as concentrations per mL (pg/mL or ng/mL).

IL-1 alpha = assay: Example 9 Luminex, LPS hPBMCs: IL-1 alpha; assay type: cell-based, human; details: IL-1 alpha, replicates and Mean
Description: as §1, §2, §3

[1] = test article 0.001 uM, single replicates
[2] = test article 0.01 uM, single replicates
[3] = test article 0.1 uM, single replicates
[4] = test article 1 uM, single replicates
[5] = test article 10 uM, single replicates
[6] = test article 100 uM, single replicates
[7] = PBMC + LPS(5 ug/ml) + YDE043 0.001 uM
[8] = PBMC + LPS(5 ug/ml) + YDE043 0.001 uM, mean
[9] = PBMC + LPS(5 ug/ml) + YDE043 0.01 uM
[10] = PBMC + LPS(5 ug/ml) + YDE043 0.01 uM, mean
[11] = PBMC + LPS(5 ug/ml) + YDE043 0.1 uM
[12] = PBMC + LPS(5 ug/ml) + YDE043 0.1 uM, mean
[13] = PBMC + LPS(5 ug/ml) + YDE043 1 uM
[14] = PBMC + LPS(5 ug/ml) + YDE043 1 uM, mean
[15] = PBMC + LPS(5 ug/ml) + YDE043 10 uM
[16] = PBMC + LPS(5 ug/ml) + YDE043 10 uM, mean
[17] = PBMC + LPS(5 ug/ml) + YDE043 100 uM
[18] = PBMC + LPS(5 ug/ml) + YDE043 100 uM, mean

SMILES: CC(C)C[C@H](NC(=O)[C@H](CCC(N)=O)NC(=O)CNC(=O)[C@@H]1C[C@@H](O)CN1)C(=O)NCC(=O)O [YDE-043] (H-[Hyp]GQLG-OH; N-terminus and C-terminus assumed)
- Concentration (CCL4/MIP-1 beta) (CCL4/MIP-1 beta; test article 0.001 uM, Mean): 7716.4 pg/mL
- conc/live cell (CCL4/MIP-1 beta) (CCL4/MIP-1 beta; test article 0.001 uM, Mean): 1568.7 pg/10^5
- MFI (Bead name: CCL4/MIP-1 beta) (CCL4/MIP-1 beta; test article 0.001 uM, Mean): 177.7
- MFI (Bead name: CCL4/MIP-1 beta) (CCL4/MIP-1 beta; [1]): 165.5 and 185.0 and 182.5
- Concentration (CCL4/MIP-1 beta) (CCL4/MIP-1 beta; [1]): 7441.6 pg/mL and 7881.5 pg/mL and 7826.1 pg/mL
- conc/live cell (CCL4/MIP-1 beta) (CCL4/MIP-1 beta; [1]): 1691.3 pg/10^5 and 1313.6 pg/10^5 and 1701.3 pg/10^5
- Concentration (CCL4/MIP-1 beta) (CCL4/MIP-1 beta; test article 0.01 uM, Mean): 7755.3 pg/mL
- conc/live cell (CCL4/MIP-1 beta) (CCL4/MIP-1 beta; test article 0.01 uM, Mean): 1483.8 pg/10^5
- MFI (Bead name: CCL4/MIP-1 beta) (CCL4/MIP-1 beta; test article 0.01 uM, Mean): 179.3
- MFI (Bead name: CCL4/MIP-1 beta) (CCL4/MIP-1 beta; [2]): 178.0 and 177.0 and 183.0
- Concentration (CCL4/MIP-1 beta) (CCL4/MIP-1 beta; [2]): 7725.6 pg/mL and 7703.2 pg/mL and 7837.2 pg/mL
- conc/live cell (CCL4/MIP-1 beta) (CCL4/MIP-1 beta; [2]): 1716.8 pg/10^5 and 1167.1 pg/10^5 and 1567.4 pg/10^5
- Concentration (CCL4/MIP-1 beta) (CCL4/MIP-1 beta; test article 0.1 uM, Mean): 7358.9 pg/mL
- conc/live cell (CCL4/MIP-1 beta) (CCL4/MIP-1 beta; test article 0.1 uM, Mean): 1365.2 pg/10^5
- MFI (Bead name: CCL4/MIP-1 beta) (CCL4/MIP-1 beta; test article 0.1 uM, Mean): 162.0
- MFI (Bead name: CCL4/MIP-1 beta) (CCL4/MIP-1 beta; [3]): 153.5 and 159.5 and 173.0
- Concentration (CCL4/MIP-1 beta) (CCL4/MIP-1 beta; [3]): 7161.3 pg/mL and 7302.4 pg/mL and 7612.9 pg/mL
- conc/live cell (CCL4/MIP-1 beta) (CCL4/MIP-1 beta; [3]): 1432.3 pg/10^5 and 1304.0 pg/10^5 and 1359.5 pg/10^5
- Concentration (CCL4/MIP-1 beta) (CCL4/MIP-1 beta; test article 1 uM, Mean): 7359.3 pg/mL
- conc/live cell (CCL4/MIP-1 beta) (CCL4/MIP-1 beta; test article 1 uM, Mean): 1391.3 pg/10^5
- MFI (Bead name: CCL4/MIP-1 beta) (CCL4/MIP-1 beta; test article 1 uM, Mean): 162.3
- MFI (Bead name: CCL4/MIP-1 beta) (CCL4/MIP-1 beta; [4]): 175.0 (2×) and 137.0
- Concentration (CCL4/MIP-1 beta) (CCL4/MIP-1 beta; [4]): 7658.2 pg/ml (2×) and 6761.7 pg/ml
- conc/live cell (CCL4/MIP-1 beta) (CCL4/MIP-1 beta; [4]): 1320.4 pg/10^5 and 1408.7 pg/10^5 and 1444.9 pg/10^5
- Concentration (CCL4/MIP-1 beta) (CCL4/MIP-1 beta; test article 10 uM, Mean): 7298.5 pg/mL
- conc/live cell (CCL4/MIP-1 beta) (CCL4/MIP-1 beta; test article 10 uM, Mean): 1352.7 pg/10^5
- MFI (Bead name: CCL4/MIP-1 beta) (CCL4/MIP-1 beta; test article 10 uM, Mean): 159.3
- MFI (Bead name: CCL4/MIP-1 beta) (CCL4/MIP-1 beta; [5]): 159.0 and 158.0 and 161.0
- Concentration (CCL4/MIP-1 beta) (CCL4/MIP-1 beta; [5]): 7290.8 pg/mL and 7267.3 pg/mL and 7337.4 pg/mL
- conc/live cell (CCL4/MIP-1 beta) (CCL4/MIP-1 beta; [5]): 1402.1 pg/10^5 and 1345.8 pg/10^5 and 1310.3 pg/10^5
- Concentration (CCL4/MIP-1 beta) (CCL4/MIP-1 beta; test article 100 uM, Mean): 6094.9 pg/mL
- conc/live cell (CCL4/MIP-1 beta) (CCL4/MIP-1 beta; test article 100 uM, Mean): 968.2 pg/10^5
- MFI (Bead name: CCL4/MIP-1 beta) (CCL4/MIP-1 beta; test article 100 uM, Mean): 111.3
- MFI (Bead name: CCL4/MIP-1 beta) (CCL4/MIP-1 beta; [6]): 118.5 and 104.0
- Concentration (CCL4/MIP-1 beta) (CCL4/MIP-1 beta; [6]): 6290.4 pg/mL and 5899.5 pg/mL
- conc/live cell (CCL4/MIP-1 beta) (CCL4/MIP-1 beta; [6]): 1014.6 pg/10^5 and 921.8 pg/10^5
- Concentration (IL-1 alpha; [7]): 339.1 pg/mL and 369.6 pg/mL and 357.7 pg/mL
- conc/live cell (IL-1 alpha; [7]): 77.1 pg/10^5 and 61.6 pg/10^5 and 77.8 pg/10^5
- Concentration (IL-1 alpha; [8]): 355.5 pg/mL
- conc/live cell (IL-1 alpha; [8]): 72.1 pg/10^5
- Concentration (IL-1 alpha; [9]): 352.5 pg/mL and 342.5 pg/mL and 370.4 pg/mL
- conc/live cell (IL-1 alpha; [9]): 78.3 pg/10^5 and 51.9 pg/10^5 and 74.1 pg/10^5
- Concentration (IL-1 alpha; [10]): 355.1 pg/mL
- conc/live cell (IL-1 alpha; [10]): 68.1 pg/10^5
- Concentration (IL-1 alpha; [11]): 361.4 pg/mL and 329.0 pg/mL and 382.6 pg/mL
- conc/live cell (IL-1 alpha; [11]): 72.3 pg/10^5 and 58.8 pg/10^5 and 68.3 pg/10^5
- Concentration (IL-1 alpha; [12]): 357.7 pg/mL
- conc/live cell (IL-1 alpha; [12]): 66.5 pg/10^5
- Concentration (IL-1 alpha; [13]): 344.7 pg/mL and 332.4 pg/mL and 338.7 pg/mL
- conc/live cell (IL-1 alpha; [13]): 59.4 pg/10^5 and 69.2 pg/10^5 and 63.9 pg/10^5
- Concentration (IL-1 alpha; [14]): 338.6 pg/mL
- conc/live cell (IL-1 alpha; [14]): 64.2 pg/10^5
- Concentration (IL-1 alpha; [15]): 357.4 pg/mL and 342.1 pg/mL and 351.0 pg/mL
- conc/live cell (IL-1 alpha; [15]): 68.7 pg/10^5 and 63.3 pg/10^5 and 62.7 pg/10^5
- Concentration (IL-1 alpha; [16]): 350.2 pg/mL
- conc/live cell (IL-1 alpha; [16]): 64.9 pg/10^5
- Concentration (IL-1 alpha; [17]): 454.5 pg/mL and 414.4 pg/mL
- conc/live cell (IL-1 alpha; [17]): 73.3 pg/10^5 and 64.7 pg/10^5
- Concentration (IL-1 alpha; [18]): 434.4 pg/mL
- conc/live cell (IL-1 alpha; [18]): 69.0 pg/10^5
